US10710978B2, “STK4 inhibitors for treatment of hematologic malignancies” (Dana-Farber Cancer Institute, Inc., priority 2015, dated 2020)
Read-outs that look alike come from different tables or passages of the source.

What was measured:
Experiment in all cases: KiNativ assay
Format in all cases: binding
Conditions in all cases: H929 live cell
PI4KB = PI4KB (Homo sapiens (Human), UniProt Q9UBF8)
Procedure: (§1) Biochemical IC50s of the compounds of the present disclosure against various kinases were measured in a KiNativ assay. Compounds were screened in duplicate at 10 μM in H929 live cell. IC50 was measured via Mass spectroscopy (MS).

ABL, ARG = system: ABL, ARG
Procedure: as §1

MARK3 = MARK3 (Homo sapiens (Human), UniProt P27448)
Procedure: as §1

[1] = system: RSK1 domain1, RSK2 domain1, RSK3 domain1
Procedure: as §1

GSK3A = GSK3A (Homo sapiens (Human), UniProt P49840)
Procedure: as §1

ATR = ATR (Homo sapiens (Human), UniProt Q13535)
Procedure: as §1

ILK = ILK (Homo sapiens (Human), UniProt Q13418)
Procedure: as §1

NDR1 = NDR1 (Homo sapiens (Human), UniProt Q15208)
Procedure: as §1

[2] = system: CaMK2a, CaMK2b, CaMK2d, CaMK2g
Procedure: as §1

NEK8 = NEK8 (Homo sapiens (Human), UniProt Q86SG6)
Procedure: as §1

CaMK1d = CaMK1d (Homo sapiens (Human), UniProt Q8IU85)
Procedure: as §1

CK1a = CK1a (Homo sapiens (Human), UniProt P48729)
Procedure: as §1

CLK2 = CLK2 (Homo sapiens (Human), UniProt P49760)
Procedure: as §1

PIK3CG = PIK3CG (Homo sapiens (Human), UniProt P48736)
Procedure: as §1

Erk2 = Erk2 (Homo sapiens (Human), UniProt P28482)
Procedure: as §1

CaMK2g = CaMK2g (Homo sapiens (Human), UniProt Q13555)
Procedure: as §1

SRPK1 = SRPK1 (Homo sapiens (Human), UniProt Q96SB4)
Procedure: as §1

RSK2 domain2 = RSK2 domain2 (Homo sapiens (Human), UniProt P51812)
Procedure: as §1

STLK3 = STLK3 (Homo sapiens (Human), UniProt Q9UEW8)
Procedure: as §1

MAST3 = MAST3 (Homo sapiens (Human), UniProt O60307)
Procedure: as §1

Erk1 = Erk1 (Homo sapiens (Human), UniProt P27361)
Procedure: as §1

TAO1, TAO3 = system: TAO1, TAO3
Procedure: as §1

CDK5 = CDK5 (Homo sapiens (Human), UniProt Q00535)
Procedure: as §1

MARK2 = MARK2 (Homo sapiens (Human), UniProt Q7KZI7)
Procedure: as §1

IKKb = IKKb (Homo sapiens (Human), UniProt O14920)
Procedure: as §1

SLK = SLK (Homo sapiens (Human), UniProt Q9H2G2)
Procedure: as §1

MAP2K6 = MAP2K6 (Homo sapiens (Human), UniProt P52564)
Procedure: as §1

MLK3 = MLK3 (Homo sapiens (Human), UniProt Q16584)
Procedure: as §1

PIK3C3 = PIK3C3 (Homo sapiens (Human), UniProt Q8NEB9)
Procedure: as §1

p38d, p38g = system: p38d, p38g
Procedure: as §1

NEK1 = NEK1 (Homo sapiens (Human), UniProt Q96PY6)
Procedure: as §1

IRAK4 = IRAK4 (Homo sapiens (Human), UniProt Q9NWZ3)
Procedure: as §1

CSK = CSK (Homo sapiens (Human), UniProt P41240)
Procedure: as §1

MLK3, sequence (Q16584 whole entry): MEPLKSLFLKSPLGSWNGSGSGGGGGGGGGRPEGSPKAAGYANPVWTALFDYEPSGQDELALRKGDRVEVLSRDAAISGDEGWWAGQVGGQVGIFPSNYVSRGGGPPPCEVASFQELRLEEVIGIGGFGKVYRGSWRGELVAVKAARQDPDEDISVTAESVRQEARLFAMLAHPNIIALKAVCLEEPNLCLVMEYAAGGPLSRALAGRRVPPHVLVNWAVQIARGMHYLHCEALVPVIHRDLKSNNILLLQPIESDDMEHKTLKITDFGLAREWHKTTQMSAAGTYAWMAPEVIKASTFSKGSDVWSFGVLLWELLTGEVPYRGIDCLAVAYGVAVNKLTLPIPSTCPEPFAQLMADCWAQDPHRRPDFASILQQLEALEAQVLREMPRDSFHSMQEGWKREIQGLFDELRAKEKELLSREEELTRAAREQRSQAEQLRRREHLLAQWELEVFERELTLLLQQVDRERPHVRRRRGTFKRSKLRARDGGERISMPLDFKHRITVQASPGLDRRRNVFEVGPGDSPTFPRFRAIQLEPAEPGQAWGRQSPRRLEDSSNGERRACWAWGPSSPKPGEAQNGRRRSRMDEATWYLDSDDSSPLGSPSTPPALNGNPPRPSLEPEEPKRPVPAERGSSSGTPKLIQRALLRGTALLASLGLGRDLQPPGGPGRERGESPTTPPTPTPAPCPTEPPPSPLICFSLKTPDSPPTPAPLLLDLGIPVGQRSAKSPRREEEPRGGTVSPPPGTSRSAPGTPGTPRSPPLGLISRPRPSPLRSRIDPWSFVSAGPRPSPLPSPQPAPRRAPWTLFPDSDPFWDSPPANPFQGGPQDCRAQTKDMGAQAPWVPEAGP
CDK5, sequence (Q00535 whole entry): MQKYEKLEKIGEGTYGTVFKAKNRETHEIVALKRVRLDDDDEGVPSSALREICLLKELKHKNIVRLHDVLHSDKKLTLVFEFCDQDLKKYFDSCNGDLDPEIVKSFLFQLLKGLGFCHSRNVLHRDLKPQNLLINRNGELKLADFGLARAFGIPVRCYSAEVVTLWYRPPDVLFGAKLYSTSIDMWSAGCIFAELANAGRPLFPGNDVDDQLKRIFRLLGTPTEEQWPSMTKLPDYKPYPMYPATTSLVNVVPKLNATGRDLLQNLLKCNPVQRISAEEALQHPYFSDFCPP
CaMK2g, sequence (Q13555 whole entry): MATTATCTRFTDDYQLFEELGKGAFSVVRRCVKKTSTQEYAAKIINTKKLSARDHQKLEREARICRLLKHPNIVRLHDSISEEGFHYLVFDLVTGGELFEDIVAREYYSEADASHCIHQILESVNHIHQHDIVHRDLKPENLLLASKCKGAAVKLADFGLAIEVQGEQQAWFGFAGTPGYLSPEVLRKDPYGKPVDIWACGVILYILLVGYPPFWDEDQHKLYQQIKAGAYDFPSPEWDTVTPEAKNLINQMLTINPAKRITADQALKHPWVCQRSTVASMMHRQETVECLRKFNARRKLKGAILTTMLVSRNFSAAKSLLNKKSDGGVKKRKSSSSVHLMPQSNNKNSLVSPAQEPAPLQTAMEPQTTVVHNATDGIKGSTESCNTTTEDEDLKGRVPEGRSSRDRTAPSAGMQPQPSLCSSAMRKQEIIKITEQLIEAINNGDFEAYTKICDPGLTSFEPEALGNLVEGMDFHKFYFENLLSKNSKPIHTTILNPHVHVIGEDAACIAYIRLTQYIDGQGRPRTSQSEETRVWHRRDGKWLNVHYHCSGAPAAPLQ
SLK, sequence (Q9H2G2 whole entry): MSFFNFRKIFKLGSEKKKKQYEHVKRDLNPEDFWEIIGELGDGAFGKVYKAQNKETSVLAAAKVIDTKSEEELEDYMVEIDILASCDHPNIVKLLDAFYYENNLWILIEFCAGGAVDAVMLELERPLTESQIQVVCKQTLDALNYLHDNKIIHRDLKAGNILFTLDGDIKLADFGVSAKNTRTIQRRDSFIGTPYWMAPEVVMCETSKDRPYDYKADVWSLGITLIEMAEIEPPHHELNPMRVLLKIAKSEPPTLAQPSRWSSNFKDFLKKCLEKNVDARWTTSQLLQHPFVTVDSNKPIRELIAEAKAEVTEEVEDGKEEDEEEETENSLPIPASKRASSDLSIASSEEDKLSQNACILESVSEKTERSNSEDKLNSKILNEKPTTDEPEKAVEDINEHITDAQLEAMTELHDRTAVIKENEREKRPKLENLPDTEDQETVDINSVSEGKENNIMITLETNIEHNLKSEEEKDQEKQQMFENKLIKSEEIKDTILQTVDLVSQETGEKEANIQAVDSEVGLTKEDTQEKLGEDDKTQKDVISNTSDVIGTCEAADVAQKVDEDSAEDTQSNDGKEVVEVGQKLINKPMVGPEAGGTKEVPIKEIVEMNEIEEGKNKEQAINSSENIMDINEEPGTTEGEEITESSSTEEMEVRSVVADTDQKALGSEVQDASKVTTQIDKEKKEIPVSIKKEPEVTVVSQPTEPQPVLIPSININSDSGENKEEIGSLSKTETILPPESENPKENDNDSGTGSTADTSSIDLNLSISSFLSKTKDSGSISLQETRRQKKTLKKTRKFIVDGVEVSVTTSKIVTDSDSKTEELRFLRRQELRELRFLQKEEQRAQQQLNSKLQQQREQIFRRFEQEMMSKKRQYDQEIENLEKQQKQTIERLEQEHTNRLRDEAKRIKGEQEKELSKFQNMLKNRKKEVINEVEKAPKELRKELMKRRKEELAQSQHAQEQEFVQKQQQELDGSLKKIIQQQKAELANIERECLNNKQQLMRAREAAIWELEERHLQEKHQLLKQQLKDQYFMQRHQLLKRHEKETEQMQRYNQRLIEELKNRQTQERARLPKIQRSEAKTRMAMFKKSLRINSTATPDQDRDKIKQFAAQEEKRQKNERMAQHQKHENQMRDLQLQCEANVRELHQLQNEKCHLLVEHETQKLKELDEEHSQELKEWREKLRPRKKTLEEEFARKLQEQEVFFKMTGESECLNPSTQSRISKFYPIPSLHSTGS
MAST3, sequence (O60307 whole entry): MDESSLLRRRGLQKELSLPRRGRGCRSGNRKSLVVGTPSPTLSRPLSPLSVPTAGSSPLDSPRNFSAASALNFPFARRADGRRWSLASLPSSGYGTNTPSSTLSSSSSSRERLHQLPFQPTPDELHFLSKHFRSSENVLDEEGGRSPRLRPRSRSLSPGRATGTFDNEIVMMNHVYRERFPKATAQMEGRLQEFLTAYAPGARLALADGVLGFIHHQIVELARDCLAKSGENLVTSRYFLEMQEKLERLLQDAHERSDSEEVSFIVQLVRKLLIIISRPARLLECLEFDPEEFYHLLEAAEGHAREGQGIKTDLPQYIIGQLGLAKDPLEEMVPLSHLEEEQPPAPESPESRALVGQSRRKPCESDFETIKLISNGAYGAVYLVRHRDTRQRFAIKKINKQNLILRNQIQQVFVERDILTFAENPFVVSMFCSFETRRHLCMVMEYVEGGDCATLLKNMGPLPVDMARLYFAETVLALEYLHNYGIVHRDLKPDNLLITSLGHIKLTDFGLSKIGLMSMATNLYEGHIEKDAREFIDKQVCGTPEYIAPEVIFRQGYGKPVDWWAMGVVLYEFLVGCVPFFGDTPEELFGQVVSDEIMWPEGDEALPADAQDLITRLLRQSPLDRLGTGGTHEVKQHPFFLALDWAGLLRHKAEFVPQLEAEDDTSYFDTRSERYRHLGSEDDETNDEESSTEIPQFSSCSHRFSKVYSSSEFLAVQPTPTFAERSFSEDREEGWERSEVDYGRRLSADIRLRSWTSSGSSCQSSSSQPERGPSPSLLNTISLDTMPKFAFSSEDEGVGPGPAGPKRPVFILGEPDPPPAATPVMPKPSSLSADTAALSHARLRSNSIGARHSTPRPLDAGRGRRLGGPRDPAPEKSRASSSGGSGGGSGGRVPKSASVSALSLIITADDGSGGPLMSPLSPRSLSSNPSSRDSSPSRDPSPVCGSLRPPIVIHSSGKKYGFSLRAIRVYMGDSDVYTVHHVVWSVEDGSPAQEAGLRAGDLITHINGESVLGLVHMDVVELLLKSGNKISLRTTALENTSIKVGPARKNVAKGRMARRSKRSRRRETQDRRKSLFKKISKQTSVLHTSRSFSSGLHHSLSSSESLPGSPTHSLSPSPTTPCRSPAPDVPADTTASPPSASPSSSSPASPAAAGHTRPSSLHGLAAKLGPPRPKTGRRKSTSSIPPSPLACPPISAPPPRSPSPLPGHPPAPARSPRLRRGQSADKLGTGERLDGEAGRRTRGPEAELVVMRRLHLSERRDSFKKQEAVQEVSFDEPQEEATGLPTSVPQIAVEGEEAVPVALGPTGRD
IKKb, sequence (O14920 whole entry): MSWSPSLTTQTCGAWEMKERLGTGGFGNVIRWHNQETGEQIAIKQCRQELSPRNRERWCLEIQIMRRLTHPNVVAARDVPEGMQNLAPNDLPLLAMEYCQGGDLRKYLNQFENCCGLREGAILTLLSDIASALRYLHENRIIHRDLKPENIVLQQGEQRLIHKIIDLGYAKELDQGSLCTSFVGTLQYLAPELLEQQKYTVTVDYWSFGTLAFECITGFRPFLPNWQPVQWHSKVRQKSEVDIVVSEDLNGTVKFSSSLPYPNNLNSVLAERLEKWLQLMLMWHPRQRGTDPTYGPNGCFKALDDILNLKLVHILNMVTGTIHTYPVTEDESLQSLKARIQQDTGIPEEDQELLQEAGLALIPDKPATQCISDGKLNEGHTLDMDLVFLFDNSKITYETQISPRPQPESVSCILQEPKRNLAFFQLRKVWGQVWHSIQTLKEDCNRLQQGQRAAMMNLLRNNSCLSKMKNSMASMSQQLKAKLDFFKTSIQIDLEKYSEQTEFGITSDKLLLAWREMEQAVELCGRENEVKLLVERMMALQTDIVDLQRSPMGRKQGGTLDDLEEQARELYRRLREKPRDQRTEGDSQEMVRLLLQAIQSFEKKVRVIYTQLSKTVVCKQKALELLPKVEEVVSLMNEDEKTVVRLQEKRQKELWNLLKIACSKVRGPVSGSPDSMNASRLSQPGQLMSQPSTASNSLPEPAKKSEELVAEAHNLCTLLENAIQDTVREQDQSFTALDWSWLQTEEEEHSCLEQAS

Which results are given for `Nc1ncc(-c2cccc3ncsc23)cc1-c1ccc2c(c1)CCNC2=O` [Compound I-13, 6-(2-amino-5-(benzo[d]thiazol-7-yl)pyridin-3-yl)-3,4-dihydroisoquinolin-1(2H)-one]?
inhibition at 10 µM (PI4KB; read-out: % inhibition (range)): 0%; inhibition at 10 µM (PI4KB; read-out: inhibition (10 μM)): 34.8%; % inhibition (range) (ABL, ARG; 10 μM): 50-75%; inhibition (10 μM) (ABL, ARG): 53.5%; inhibition at 10 µM (MARK3; read-out: % inhibition (range)): 35 to 50%; inhibition at 10 µM (MARK3; read-out: inhibition (10 μM)): 46.2%; % inhibition (range) ([1]; 10 μM): 0.0%; inhibition (10 μM) [1]: 13.1%; inhibition at 10 µM (GSK3A; read-out: % inhibition (range)): > 90%; inhibition at 10 µM (GSK3A; read-out: inhibition (10 μM)): 91.6%; inhibition at 10 µM (ATR; read-out: % inhibition (range)): 0%; inhibition at 10 µM (ATR; read-out: inhibition (10 μM)): -16.1%; inhibition at 10 µM (ILK; read-out: % inhibition (range)): 0%; inhibition at 10 µM (ILK; read-out: inhibition (10 μM)): 1.6%; inhibition at 10 µM (NDR1; read-out: % inhibition (range)): 0%; inhibition at 10 µM (NDR1; read-out: inhibition (10 μM)): 13%; % inhibition (range) ([2]; 10 μM): 0.0%; inhibition (10 μM) [2]: −4.1%; inhibition at 10 µM (NEK8; read-out: % inhibition (range)): 0%; inhibition at 10 µM (NEK8; read-out: inhibition (10 μM)): 10.6%; inhibition at 10 µM (CaMK1d; read-out: % inhibition (range)): 0%; inhibition at 10 µM (CaMK1d; read-out: inhibition (10 μM)): 16.2%; inhibition at 10 µM (CK1a; read-out: % inhibition (range)): 0%; inhibition at 10 µM (CK1a; read-out: inhibition (10 μM)): -17.4%; inhibition at 10 µM (CLK2; read-out: % inhibition (range)): 0%; inhibition at 10 µM (CLK2; read-out:): 19.1%; inhibition at 10 µM (PIK3CG; read-out: % inhibition (range)): 0%; inhibition at 10 µM (PIK3CG; read-out: inhibition (10 μM)): 12.4%; inhibition at 10 µM (Erk2; read-out: % inhibition (range)): 50 to 75%; inhibition at 10 µM (Erk2; read-out: inhibition (10 μM)): 74.6%; inhibition at 10 µM (CaMK2g; read-out: % inhibition (range)): 0%; inhibition at 10 µM (CaMK2g; read-out: inhibition (10 μM)): -13.6%; inhibition at 10 µM (SRPK1; read-out: % inhibition (range)): 0%; inhibition at 10 µM (SRPK1; read-out: inhibition (10 μM)): 10.8%; inhibition at 10 µM (RSK2 domain2; read-out: % inhibition (range)): 0%; inhibition at 10 µM (RSK2 domain2; read-out: inhibition (10 μM)): 3.8%; inhibition at 10 µM (STLK3; read-out: % inhibition (range)): 0%; inhibition at 10 µM (STLK3; read-out: inhibition (10 μM)): 1.1%; inhibition at 10 µM (MAST3; read-out: % inhibition (range)): 0%; inhibition at 10 µM (MAST3; read-out: inhibition (10 μM)): 22%; inhibition at 10 µM (Erk1; read-out: % inhibition (range)): 75 to 90%; inhibition at 10 µM (Erk1; read-out: inhibition (10 μM)): 75%; % inhibition (range) (TAO1, TAO3; 10 μM): 0.0%; inhibition (10 μM) (TAO1, TAO3): 10.3%; inhibition at 10 µM (CDK5; read-out: % inhibition (range)): 0%; inhibition at 10 µM (CDK5; read-out: inhibition (10 μM)): 20%; inhibition at 10 µM (MARK2; read-out: % inhibition (range)): 0%; inhibition at 10 µM (MARK2; read-out: inhibition (10 μM)): 32.3%; inhibition at 10 µM (IKKb; read-out: % inhibition (range)): 0%; inhibition at 10 µM (IKKb; read-out: inhibition (10 μM)): -3.3%; inhibition at 10 µM (SLK; read-out: % inhibition (range)): 35 to 50%; inhibition at 10 µM (SLK; read-out: inhibition (10 μM)): 49.2%; inhibition at 10 µM (MAP2K6; read-out: % inhibition (range)): 0%; inhibition at 10 µM (MAP2K6; read-out: inhibition (10 μM)): 4.3%; inhibition at 10 µM (MLK3; read-out: % inhibition (range)): 0%; inhibition at 10 µM (MLK3; read-out: inhibition (10 μM)): -3.9%; inhibition at 10 µM (PIK3C3; read-out: % inhibition (range)): 0%; inhibition at 10 µM (PIK3C3; read-out: inhibition (10 μM)): 24.8%; % inhibition (range) (p38d, p38g; 10 μM): 0.0%; inhibition (10 μM) (p38d, p38g): −43.7%; inhibition at 10 µM (NEK1; read-out: % inhibition (range)): 0%; inhibition at 10 µM (NEK1; read-out: inhibition (10 μM)): 6.2%; inhibition at 10 µM (IRAK4; read-out: % inhibition (range)): 0%; inhibition at 10 µM (IRAK4; read-out: inhibition (10 μM)): -6.4%; inhibition at 10 µM (CSK; read-out: % inhibition (range)): 0%; inhibition at 10 µM (CSK; read-out: inhibition (10 μM)): 4.7%
